Data reported in patent publication US8455516B2, “HIV-1 fusion inhibitors and methods” (Touro University, priority 2010, dated 2013).
Read-outs that look alike come from different tables or passages of the source.

Columns and labels:
[1] = system: MAGI cells; settings: human
[2] = system: Pseudovirus HIV-1 BAL (CCR5-tropic strain); test: microbe, parasite or virus in culture; settings: MAGI
[3] = in vitro; settings: human
[4] = cytotoxicity, luciferase expression-based test; settings: human, TZM-bl cells
[5] = system: Pseudovirus HIV-1 BAL (CCR5-tropic strain)
[6] = system: HIV-1 Ba-L; test: HIV-1 viral infectivity inhibition, Ba-L; format: cell-based; settings: Human immunodeficiency virus 1, BAL
Procedure: (§1) The ability of the compounds to inhibit HIV-1 infectivity was assessed using standard assays as reported in the literature. See: 1) Desmezieres, E.; Gupta, N.; Vassell, R.; He, Y.; Peden, K.; Sirota, L.; Yang, Z.; Wingfield, P.; Weiss, C. D. J Virol 2005, 79, 4774, and 2) Lackman-Smith, C.; Osterling, C.; Luckenbaugh, K.; Mankowski, M.; Snyder, B.; Lewis, G.; Paull, J.; Profy, A.; Ptak, R. G.; Buckheit, R. W., Jr.; Watson, K. M.; Cummins, J. E.; Sanders-Beer, B. E. Antimicrob Agents Chemother 2008.

[7] = system: HIV-1 IIIB; test: HIV-1 viral infectivity inhibition, IIIB; format: cell-based; settings: Human immunodeficiency virus 1, IIIB
Procedure: as §1

[8] = system: TZM-bl cells; test: cytotoxicity, luciferase expression-based test; settings: toxicity to TZM-bl cells, 24 hour exposure
[9] = system: HIV-1 HXB2; test: HIV-1 viral infectivity inhibition, HXB2; format: cell-based; settings: Human immunodeficiency virus 1, HXB2
Procedure: as §1

[10] = target: T1, gp41 hydrophobic pocket (receptor Fe(env2.0)3) (Human immunodeficiency virus type 1 group M subtype B, UniProt P04578); test: competitive inhibition fluorescence binding assay for the gp41 hydrophobic pocket; set-up: species or system HIV-1; settings: binding constant, hydrophobic pocket of gp41
T1 construct: utilizing a receptor Fe(env2.0)3 selective for the hydrophobic pocket
Procedure: Compounds were validated for binding activity with a biochemical assay, and for biological activity with a cell-cell fusion (CCF) assay.
Association between the C-peptide and receptor leads to fluorescence quenching, which is reversed in the presence of an inhibitor. […] The assay is quantitative and provides the binding constant (KI) of the inhibitor.
Toxicity of the compounds to TZM-bl cells was also tested to ensure that the luminescence decrease was not simply due to cell death (CC50, toxicity).

O=C(O)c1cccc(Cc2ccc3cc[nH]c3c2)c1 [Compound I-1, 3-((1H-indol-6-yl)methyl)benzoic acid]
CC50 [1]: > 100 µM
IC50 ([2]; 2% Serum): 15.5 µM
IC90 ([2]; 2% Serum): 58 µM
IC50 ([2]; 5% Serum): 34.8 µM
IC90 ([2]; 5% Serum): 89.4 µM
IC50 ([2]; 10% Serum): 44.7 µM
IC90 ([2]; 10% Serum): > 100 µM
CC50 [3]: > 100 µM
CC50 at 24 h [4]: > 500 µM
TI (TC50/IC50) ([5]; 2% Serum): >6.45
TI (TC50/IC50) ([5]; 5% Serum): >2.87
TI (TC50/IC50) ([5]; 10% Serum): >2.24
IC50 [6]: 44.7 µM
IC50 [7]: 99.9 µM

COc1ccc(Cn2ccc3ccc(Cc4cccc(C(=O)O)c4)cc32)cc1 [Compound I-2, 3-((1-(4-methoxybenzyl)-1H-indol-6-yl)methyl)benzoic acid]
CC50 [8]: 100 µM

O=C(O)C(=O)c1c[nH]c2cc(Cc3cccc(C(=O)O)c3)ccc12 [Compound I-3, 3-((3-(carboxycarbonyl)-1H-indol-6-yl)methyl)benzoic acid]
CC50 at 24 h [4]: > 100 µM

O=C(O)c1cccc(Cc2ccc3ccn(Cc4cccc(C(=O)O)c4)c3c2)c1 [Compound I-4, 3-((1-(3-(carboxy)benzyl)-1H-indol-6-yl)methyl)benzoic acid]
CC50 at 24 h [4]: > 200 µM

O=C(O)c1cccc(Cc2ccc3ccn(Cn4ccc5ccc(Cc6cccc(C(=O)O)c6)cc54)c3c2)c1 [Compound I-5, 3,3′-(1,1′-methylenebis(1H-indole-6,1-diyl))bis(methylene)dibenzoic acid]
CC50 [1]: > 100 µM
IC50 ([2]; 2% Serum): 14.6 µM
IC90 ([2]; 2% Serum): 71.2 µM
IC50 ([2]; 5% Serum): 49.6 µM
IC90 ([2]; 5% Serum): 93.6 µM
IC50 ([2]; 10% Serum): 92.1 µM
IC90 ([2]; 10% Serum): > 100 µM
CC50 [3]: > 100 µM
CC50 at 24 h [4]: > 100 µM
TI (TC50/IC50) ([5]; 2% Serum): >6.85
TI (TC50/IC50) ([5]; 5% Serum): >2.02
TI (TC50/IC50) ([5]; 10% Serum): >1.09
IC50 [6]: 92.1 µM
IC50 [9]: 17 µM
IC50 [7]: ≥ 100 µM

O=C(O)c1cccc(Cc2ccc3ccn(-c4cccc(C(=O)O)c4)c3c2)c1 [Compound I-6, 3-(6-(3-carboxybenzyl)-1H-indol-1-yl)benzoic acid]
CC50 [8]: > 400 µM
Ki [10]: 45 ± 5 µM

COc1cccc(-n2ccc3ccc(Cc4cccc(C(=O)O)c4)cc32)c1 [Compound I-7, 3-((1-(3-methoxyphenyl)-1H-indol-6-yl)methyl)benzoic acid]
CC50 [1]: > 100 µM
IC50 ([2]; 2% Serum): 15.8 µM
IC90 ([2]; 2% Serum): > 100 µM
IC50 ([2]; 5% Serum): 34 µM
IC90 ([2]; 5% Serum): > 100 µM
IC50 ([2]; 10% Serum): 67.7 µM
IC90 ([2]; 10% Serum): > 100 µM
CC50 [3]: > 100 µM
CC50 at 24 h [4]: > 100 µM
TI (TC50/IC50) ([5]; 2% Serum): >6.33
TI (TC50/IC50) ([5]; 5% Serum): >2.94
TI (TC50/IC50) ([5]; 10% Serum): >1.48
IC50 [6]: 67.7 µM
IC50 [7]: 61.5 µM

O=Cc1c[nH]c2cc(Cc3cccc(C(=O)O)c3)ccc12 [Compound I-8, 3-((3-formyl-1H-indol-6-yl)methyl)benzoic acid]
CC50 at 24 h [4]: > 100 µM

O=C(O)c1cccc(Cc2ccc3[nH]ccc3c2)c1 [Compound I-9, 3-((1H-indol-5-yl)methyl)benzoic acid]
CC50 at 24 h [4]: > 400 µM

O=C(O)c1cccc(Cc2ccc3c(ccn3Cc3cccc(C(=O)O)c3)c2)c1 [Compound I-10, 3-((1-(3-carboxybenzyl)-1H-indol-5-yl)methyl)benzoic acid]
CC50 [8]: > 400 µM

COc1cccc(-c2ccc3ccn(Cc4cccc(C(=O)O)c4)c3c2)c1 [Compound I-11, 3-((6-(3-methoxyphenyl)-1H-indol-1-yl)methyl)benzoic acid]
IC50 ([2]; 2% Serum): 18 µM
IC90 ([2]; 2% Serum): > 100 µM
IC50 ([2]; 5% Serum): 36.6 µM
IC90 ([2]; 5% Serum): > 100 µM
IC50 ([2]; 10% Serum): 47.4 µM
IC90 ([2]; 10% Serum): > 100 µM
CC50 [3]: > 100 µM
CC50 at 24 h [4]: > 100 µM
TI (TC50/IC50) ([5]; 2% Serum): 3.75
TI (TC50/IC50) ([5]; 5% Serum): >2.73
TI (TC50/IC50) ([5]; 10% Serum): >2.11
IC50 [6]: 47.4 µM
IC50 [7]: 57.4 µM

O=C(O)c1cccc(-c2ccc3cc[nH]c3c2)c1 [Compound I-12, 3-(1H-indol-6-yl)benzoic acid]
CC50 at 24 h [4]: > 100 µM

O=C(O)c1cccc(Cn2ccc3cc(-c4cccc(C(=O)O)c4)ccc32)c1 [Compound I-13, 3-(1-(3-carboxybenzyl)-1H-indol-5-yl)benzoic acid]
CC50 [8]: > 400 µM

O=C(O)c1cccc(Cn2ccc3ccc(-c4cccc(O)c4)cc32)c1 [Compound I-14, 3-((6-(3-hydroxyphenyl)-1H-indol-1-yl)methyl)benzoic acid]
CC50 at 24 h [4]: > 100 µM

O=[N+]([O-])c1cccc(Cc2ccc3cc[nH]c3c2)c1 [Compound I-15, 6-(3-nitrobenzyl)-1H-indole]
CC50 at 24 h [4]: ~63 µM

O=C(O)c1ccc([N+](=O)[O-])c(Cc2ccc3cc[nH]c3c2)c1 [Compound I-16, 3-((1H-indol-6-yl)methyl)-4-nitrobenzoic acid]
CC50 at 24 h [4]: > 100 µM

COc1ccc(C(=O)O)cc1Cc1ccc2cc[nH]c2c1 [Compound I-17, 3-((1H-indol-6-yl)methyl)-4-methoxybenzoic acid]
CC50 at 24 h [4]: > 100 µM

O=C(O)c1cc(O)cc(Cc2ccc3cc[nH]c3c2)c1 [Compound I-18, 3-((1H-indol-6-yl)methyl)-5-hydroxybenzoic acid]
CC50 at 24 h [4]: > 100 µM

O=C(O)c1ccc(O)c(Cc2ccc3cc[nH]c3c2)c1 [Compound I-19, 3-((1H-indol-6-yl)methyl)-4-hydroxybenzoic acid]
CC50 at 24 h [4]: > 100 µM

COc1cc(Cc2ccc3cc[nH]c3c2)cc(C(=O)O)c1 [Compound I-20, 3-((1H-indol-6-yl)methyl)-5-methoxybenzoic acid]
CC50 at 24 h [4]: > 100 µM

O=C(O)c1cccc(COc2cccc(-c3ccc4ccn(Cc5cccc(C(=O)O)c5)c4c3)c2)c1 [Compound I-21, 3-((3-(1-(3-carboxybenzyl)-1H-indol-6-yl)phenoxy)methyl)benzoic acid]
CC50 at 24 h [4]: > 100 µM

COc1ccc(COc2cccc(-c3ccc4ccn(Cc5cccc(C(=O)OCc6cccc(C(=O)O)c6)c5)c4c3)c2)cc1 [Compound I-22, 3-((3-((6-(3-(4-methoxybenzyloxy)phenyl)-1H-indol-1-yl)methyl)benzoyloxy)methyl)benzoic acid]
IC50 ([2]; 2% Serum): 13.8 µM
IC90 ([2]; 2% Serum): 31.1 µM
IC50 ([2]; 5% Serum): 18.7 µM
IC90 ([2]; 5% Serum): 76.4 µM
IC50 ([2]; 10% Serum): 22.6 µM
IC90 ([2]; 10% Serum): 91.7 µM
CC50 [3]: > 100 µM
CC50 at 24 h [4]: > 100 µM
TI (TC50/IC50) ([5]; 2% Serum): 4.27
TI (TC50/IC50) ([5]; 5% Serum): >5.35
TI (TC50/IC50) ([5]; 10% Serum): >4.42

O=C(O)c1cccc(Cn2ccc3ccc(-c4ccc5cc(Cl)ccc5n4)cc32)c1 [II-1, 3-((6-(6-chloroquinolin-2-yl)-1H-indol-1-yl)methyl)benzoic acid]
CC50 at 24 h [4]: 93 µM

O=C(O)c1cccc(Cn2ccc3cc(-c4ccc5cc(Cl)ccc5n4)ccc32)c1 [II-2, 3-((5-(6-chloroquinolin-2-yl)-1H-indol-1-yl)methyl)benzoic acid]
CC50 at 24 h [4]: 156 µM

COc1ccc(Cn2ccc3ccc(-c4ccc5ccn(Cc6cccc(C(=O)O)c6)c5c4)cc32)cc1 [II-3, 3-((1′-(4-methoxybenzyl)-1H,1′H-6,6′-biindol-1-yl)methyl)benzoic acid]
CC50 at 24 h [4]: 18.9 ± 2.9 µM
